IC50 data for 30 compounds are collected here from patent publication US8431593B2, “Heteroaryl amide derivatives” (H. Lundbeck A/S, priority 2006, dated 2013).

A value given as a limit tells only on which side of the number the result lay.

In one experiment the target is T1, P2X7 receptor (Homo sapiens, UniProt Q99572).
T1 construct: host or cells: SH-SY5Y
T1 sequence (Q99572 1-595): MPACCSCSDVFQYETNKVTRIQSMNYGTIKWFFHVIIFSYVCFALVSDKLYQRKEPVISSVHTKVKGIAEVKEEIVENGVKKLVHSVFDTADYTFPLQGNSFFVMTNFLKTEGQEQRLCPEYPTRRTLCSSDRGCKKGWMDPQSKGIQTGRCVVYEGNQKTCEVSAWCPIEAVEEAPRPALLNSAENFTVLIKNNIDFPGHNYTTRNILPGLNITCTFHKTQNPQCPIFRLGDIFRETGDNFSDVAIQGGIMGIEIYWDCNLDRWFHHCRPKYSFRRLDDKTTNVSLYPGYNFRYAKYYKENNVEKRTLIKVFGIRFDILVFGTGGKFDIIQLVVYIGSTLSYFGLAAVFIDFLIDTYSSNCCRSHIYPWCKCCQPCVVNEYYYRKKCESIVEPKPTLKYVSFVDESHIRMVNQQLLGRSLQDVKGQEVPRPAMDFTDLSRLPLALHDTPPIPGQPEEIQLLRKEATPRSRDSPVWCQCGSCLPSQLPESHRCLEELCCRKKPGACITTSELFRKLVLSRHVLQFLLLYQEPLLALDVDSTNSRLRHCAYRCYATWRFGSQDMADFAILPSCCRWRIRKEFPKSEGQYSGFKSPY
The experiment in a line: P2X7 calcium mobilization assay, high throughput, antagonist activity (Example 4A). Format: cell-based.
Conditions: not given
The gist of the method:
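100,000 cells/well, plated day -1. Dye 1 h → rinse → compound 1 h, RT → FLIPR^TETRA Ca2+ mobilization. Max RFU minus mean negative control (no agonist); mean agonist-well max as positive control.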
Background: Calcium assays in cells follow changes in intracellular calcium, usually with a dye or a luminescent sensor.
With `NCCNCc1cn2c(C(=O)NCC34CC5CC(CC(C5)C3)C4)cccc2n1` [Compound 122, N-(adamantan-1-ylmethyl)-2-{[(2-aminoethyl)amino]methyl}imi-dazo[1,2-a]pyridine-5-carboxamide], the IC50 – broadly, the point on the concentration scale where inhibition reaches its midpoint – was less than 2 µM.
Consider `NCCCNCc1cn2c(C(=O)NCC34CC5CC(CC(C5)C3)C4)cccc2n1` [Compound 123, N-(adamantan-1-ylmethyl)-2-{[(3-aminopropyl)amino]methyl}imi-dazo[1,2-a]pyridine-5-carboxamide], for which the IC50 is less than 2 µM.
The same measure, in the same setting: then `CNCCN(C)Cc1cn2c(C(=O)NCC34CC5CC(CC(C5)C3)C4)cccc2n1` [Compound 124, N-(adamantan-1-ylmethyl)-2-({methyl[2-(methylamino)eth-yl]amino}methyl)imi-dazo[1,2-a]pyridine-5-carboxamide], with less than 2 µM; and `O=C(NCC12CC3CC(CC(C3)C1)C2)c1cccc2nc(CNCCN3CCOCC3)cn12` [Compound 125, N-(adamantan-1-ylmethyl)-2-{[(2-morpholin-4-ylethyl)amino]methyl}imi-dazo[1,2-a]pyridine-5-carboxamide], with less than 2 µM; and `O=C(NCC12CC3CC(CC(C3)C1)C2)c1cccc2nc(CNCCN3CCCC3)cn12` [Compound 126, N-(adamantan-1-ylmethyl)-2-{[(2-pyrrolidin-1-ylethyl)amino]methyl}imi-dazo[1,2-a]pyridine-5-carboxamide], with less than 2 µM.

Staying with this experiment, now noted: SH-SY5Y cells; 50% decrease in fluorescence response to 80 μM BzATP; read-out: IC50.
Consider `CN1CCC(N(C)C(=O)c2cn3c(C(=O)NCC45CC6CC(CC(C6)C4)C5)cccc3n2)C1` (stereo not drawn) [Compound 92, 5-N-(adamantan-1-ylmethyl)--methyl--(1-methylpyrrolidin-3-yl)imidazo[1,2-a]pyridine-2,5-dicarboxamide], for which the IC50 is less than 2 µM.
The same measure, in the same setting: then `CN(C)C1CCN(C(=O)c2cn3c(C(=O)NCC45CC6CC(CC(C6)C4)C5)cccc3n2)C1` (stereo not drawn) [Compound 93, N-(adamantan-1-ylmethyl)-2-{[3-(dimethyl-amino)pyrrolidin-1-yl]carbonyl}imidazo[1,2-a]pyridine-5-carboxamide], with less than 2 µM.
Same read-out and setting: then `COCCN1CCN(C(=O)c2cn3c(C(=O)NCC45CC6CC(CC(C6)C4)C5)cccc3n2)CC1` [Compound 94, N-(adamantan-1-ylmethyl)-2-{[4-(2-methoxyethyl)piperazin-1-yl]carbonyl}imidazo[1,2-a]pyridine-5-carboxamide], with less than 2 µM; and `COC1CCN(C(=O)c2cn3c(C(=O)NCC45CC6CC(CC(C6)C4)C5)cccc3n2)CC1` [Compound 95, N-(adamantan-1-ylmethyl)-2-[(4-methoxypiperidin-1-yl)carbonyl]imidazo[1,2-a]pyridine-5-carboxamide], with less than 2 µM; and `CS(=O)(=O)C1CCN(C(=O)c2cn3c(C(=O)NCC45CC6CC(CC(C6)C4)C5)cccc3n2)CC1` [Compound 96, N-(adamantan-1-ylmethyl)-2-{[4-(methyl-sulfonyl)piperidin-1-yl]carbonyl}imidazo[1,2-a]pyridine-5-carboxamide], with less than 2 µM.
Turning to `CS(=O)(=O)N1CCN(C(=O)c2cn3c(C(=O)NCC45CC6CC(CC(C6)C4)C5)cccc3n2)CC1` [Compound 97, N-(adamantan-1-ylmethyl)-2-{[4-(methyl-sulfonyl)piperazin-1-yl]carbonyl}imidazo[1,2-a]pyridine-5-carboxamide], the half-inhibitory concentration (IC50) was less than 2 µM.
The same measure, in the same setting: then `CN(CCNS(C)(=O)=O)C(=O)c1cn2c(C(=O)NCC34CC5CC(CC(C5)C3)C4)cccc2n1` [Compound 98, 5-N-(adamantan-1-ylmethyl)--methyl--{2-[(methyl-sulfonyl)amino]eth-yl)imidazo[1,2-a]pyridine-2,5-dicarboxamide], with less than 2 µM.
Same read-out and setting: as for `O=C1CN(C(=O)c2cn3c(C(=O)NCC45CC6CC(CC(C6)C4)C5)cccc3n2)CCN1` [Compound 99, N-(adamantan-1-ylmethyl)-2-[(3-oxopiperazin-1-yl)carbonyl]imidazo[1,2-a]pyridine-5-carboxamide], the figure is less than 2 µM; as for `COC1CCCN(C(=O)c2cn3c(C(=O)NCC45CC6CC(CC(C6)C4)C5)cccc3n2)C1` (stereo not drawn) [Compound 100, N-(adamantan-1-ylmethyl)-2-[(3-methoxypiperidin-1-yl)carbonyl]imidazo[1,2-a]pyridine-5-carboxamide], less than 2 µM.
On to `O=C(NCC12CC3CC(CC(C3)C1)C2)c1cccc2nc(C(=O)N3CCC(N4CCOCC4)CC3)cn12` [Compound 101, N-(adamantan-1-ylmethyl)-2-[(4-morpholin-4-ylpiperidin-1-yl)carbonyl]imidazo[1,2-a]pyridine-5-carboxamide], for which the IC50 is less than 2 µM.
With `NC(=O)C1CCN(C(=O)c2cn3c(C(=O)NCC45CC6CC(CC(C6)C4)C5)cccc3n2)CC1` [Compound 102, N-(adamantan-1-ylmethyl)-2-[(4-carbamoylpiperidin-1-yl)carbonyl]imidazo[1,2-a]pyridine-5-carboxamide], the IC50 is less than 2 µM.
Still for that read-out and setting: as for `NC(=O)C1CCCN(C(=O)c2cn3c(C(=O)NCC45CC6CC(CC(C6)C4)C5)cccc3n2)C1` (stereo not drawn) [Compound 103, N-(adamantan-1-ylmethyl)-2-[(3-carbamoylpiperidin-1-yl)carbonyl]imidazo[1,2-a]pyridine-5-carboxamide], the figure is less than 2 µM; as for `O=C(NCC12CC3CC(CC(C3)C1)C2)c1cccc2nc(C(=O)N3CCCC(O)C3)cn12` (stereo not drawn) [Compound 105, N-(adamantan-1-ylmethyl)-2-[(3-hydroxypiperidin-1-yl)carbonyl]imidazo[1,2-a]pyridine-5-carboxamide], less than 2 µM; as for `O=C(NCC12CC3CC(CC(C3)C1)C2)c1cccc2nc(C(=O)N3CCC(O)CC3)cn12` [Compound 106, N-(adamantan-1-ylmethyl)-2-[(4-hydroxypiperidin-1-yl)carbonyl]imidazo[1,2-a]pyridine-5-carboxamide], less than 2 µM.
For `O=C(NCC12CC3CC(CC(C3)C1)C2)c1cccc2nc(C(=O)N3CC(O)C3)cn12` [Compound 107, N-(adamantan-1-ylmethyl)-2-[(3-hydroxyazetidin-1-yl)carbonyl]imidazo[1,2-a]pyridine-5-carboxamide], the IC50 is less than 2 µM.
Same read-out and setting: as for `CC1(O)CCN(C(=O)c2cn3c(C(=O)NCC45CC6CC(CC(C6)C4)C5)cccc3n2)CC1` [Compound 108, N-(adamantan-1-ylmethyl)-2-[(4-hydroxy-4-methylpiperidin-1-yl)carbonyl]imidazo[1,2-a]pyridine-5-carboxamide], the figure is less than 2 µM.
For `CC1(O)CCN(C(=O)c2cn3c(C(=O)NCC45CC6CC(CC(C6)C4)C5)cccc3n2)C1` (stereo not drawn) [Compound 112, N-(adamantan-1-ylmethyl)-2-[(3-hydroxy-3-methylpyrrolidin-1-yl)carbonyl]imidazo[1,2-a]pyridine-5-carboxamide], the half-maximal inhibitory concentration (IC50) is less than 2 µM.
The same measure, in the same setting: as for `C[C@@H]1CN(C(=O)Cc2cn3c(C(=O)NCC45CC6CC(CC(C6)C4)C5)cccc3n2)CCN1` [Compound 114, N-(adamantan-1-ylmethyl)-2-{2-[(3R)-3-methylpiperazin-1-yl]-2-oxoethyl}imidazo[1,2-a]pyridine-5-carboxamide], the figure is less than 2 µM; as for `N[C@@H]1CCN(CCc2cn3c(C(=O)NCC45CC6CC(CC(C6)C4)C5)cccc3n2)C1` [Compound 115, 2-[2-((R)-3-amino-pyrrolidin-1-yl)-ethyl]-imidazo[1,2-a]pyridine-5-carboxylic acid (adamantan-1-ylmethyl)-amide], less than 2 µM.
On the same count and under the same terms, as for `O=C(NCC12CC3CC(CC(C3)C1)C2)c1cccc2nc(CCN3CCC(O)CC3)cn12` [Compound 116, 2-[2-(4-hydroxy-piperidin-1-yl)-ethyl]-imidazo[1,2-a]pyridine-5-carboxylic acid (adamantan-1-ylmethyl)-amide], the figure is less than 2 µM; as for `NC1CCN(CCc2cn3c(C(=O)NCC45CC6CC(CC(C6)C4)C5)cccc3n2)CC1` [Compound 117, 2-[2-(4-amino-piperidin-1-yl)-ethyl]-imidazo[1,2-a]pyridine-5-carboxylic acid (adamantan-1-ylmethyl)-amide], less than 2 µM.
On the same count and under the same terms, then `NC1CCCN(CCc2cn3c(C(=O)NCC45CC6CC(CC(C6)C4)C5)cccc3n2)C1` (stereo not drawn) [Compound 118, 2-[2-(3-amino-piperidin-1-yl)-ethyl]-imidazo[1,2-a]pyridine-5-carboxylic acid (adamantan-1-ylmethyl)-amide], with less than 2 µM.
On to `O=C(NCC12CC3CC(CC(C3)C1)C2)c1cccc2nc(CCNC3CCNCC3)cn12` [Compound 119, 2-[2-(piperidin-4-ylamino)-ethyl]-imidazo[1,2-a]pyridine-5-carboxylic acid (adamantan-1-ylmethyl)-amide], for which the half-inhibitory concentration (IC50) is less than 2 µM.
On the same count and under the same terms, as for `NC1CCN(Cc2cn3c(C(=O)NCC45CC6CC(CC(C6)C4)C5)cccc3n2)CC1` [Compound 120, N-(adamantan-1-ylmethyl)-2-[(4-aminopiperidin-1-yl)methyl]imidazo[1,2-a]pyridine-5-carboxamide], the figure is less than 2 µM; as for `NC1CCCN(Cc2cn3c(C(=O)NCC45CC6CC(CC(C6)C4)C5)cccc3n2)C1` (stereo not drawn) [Compound 121, N-(adamantan-1-ylmethyl)-2-[(3-aminopiperidin-1-yl)methyl]imidazo[1,2-a]pyridine-5-carboxamide], less than 2 µM.
